PMC7259601 (PLoS ONE, 2020)

Key:
[1] = system: NMDA receptor NR1 subunit hypofunction mice; set-up: method as in PMID 30580376; conditions: cited from earlier work
MAO-B [2] = biological target: MAO-B (Mus musculus, UniProt Q8BW75); conditions: p.o. gavage, followed by 25 mg/kg PEA
MAO-A = biological target: T1, MAO-A (Mus musculus, UniProt Q64133); assay: L-5-HTP-induced symptoms test; type: in vivo, CD1 mice
T1 construct: from tissue; host or cells: mouse brain (homogenate ex vivo; living animal in the L-5-HTP test)
T1 sequence (Q64133 1-526): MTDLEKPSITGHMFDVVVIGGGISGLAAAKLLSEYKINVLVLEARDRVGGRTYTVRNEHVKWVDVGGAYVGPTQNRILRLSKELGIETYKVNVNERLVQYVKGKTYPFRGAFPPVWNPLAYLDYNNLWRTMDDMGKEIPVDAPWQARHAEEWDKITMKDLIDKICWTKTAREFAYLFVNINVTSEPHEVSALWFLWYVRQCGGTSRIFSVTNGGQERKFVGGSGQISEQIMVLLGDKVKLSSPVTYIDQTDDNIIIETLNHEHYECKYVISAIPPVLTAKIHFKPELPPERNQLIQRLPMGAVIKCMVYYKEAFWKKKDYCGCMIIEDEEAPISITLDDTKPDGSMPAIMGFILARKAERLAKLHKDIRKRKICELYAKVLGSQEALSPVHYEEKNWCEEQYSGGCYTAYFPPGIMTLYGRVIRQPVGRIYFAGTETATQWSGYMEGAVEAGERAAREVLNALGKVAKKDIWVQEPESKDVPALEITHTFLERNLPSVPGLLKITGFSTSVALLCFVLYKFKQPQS
Method: Male C57BL/6 mice (8 weeks of age, 25-30 g) procured from Harlan Interfauna Iberica were housed in the same condition that in MAO-B PEA section. This test was performed essentially as previously described. Test compound was administered p.o. at several dose levels to groups of mice (N = 10/dose) 60 min before an i.p. injection of L-5-HTP (100 mg/kg). This dose of 5-L-HTP produced no effects in control animals. […] Studies were performed in accordance with the institutional guidelines for the care and use of laboratory animals (European Communities Council Directive 86/609/EEC) established by the Ethical Committee for Animal Experimentation at the PRAAL-PCB.
This test was performed essentially as previously described [90](Koe et al., 1983). Test compound was administered p.o. at several dose levels 60 min before an i.p. injection of L-5-HTP. […] One score assigned to each symptom observed per animal, giving a maximal obtainable score of 30 per group of 10 mice.
Behavior was rated as outline above.

SETD1 +/- mice = system: SETD1 +/- mice; set-up: method as in PMID 31606247; conditions: cited from earlier work
KDM1A-E8a KO mice = system: KDM1A-E8a KO mice; set-up: method as in PMID 26976584; conditions: cited from earlier work
SAMP8 mice = assay: Novel Object Recognition Test (NORT); type: in vivo, mouse; conditions: 3 mg/kg/day (Exp4), p = 0.12
Method: Both male and female mice from the senescence accelerated strain SAMP8 and its control SAMR1 of different ages (see Table S3 for details) were used in these studies. Mice were breed in the animal facilities of the Pharmacy Faculty (University of Barcelona), maintained in a at 22 ± 2 °C controlled temperature in a 12 hr light / dark cycle (lights on at 8:00 am; 300 lux/0 lux) with ad libitum access to food (2018 TEKLAD, Harlan) and water. Male mice were housed individually (males) or in groups of 4-5 animals (females) in plastic colony boxes with a sawdust bedding material. […] SAMR1 mice treated with vehicle were included as a control. All drugs were administered via drinking water and diluted in vehicle. Drug concentration was calculated weekly in function of body weight and corrected in function of drinking water consumption. Cognitive function was evaluated by NORT, social behavior was evaluated by RI and anxiety and motor function were evaluated by EPM and OF. When necessary, animals were deeply anesthetized (80 mg/kg sodium pentobarbital) and brain samples (hippocampus, (prefrontal) cortex) were micro-dissected and processed according to the downstream analysis.
The protocol was performed as previously described. Briefly, animals were placed in a 90°- two-arm maze. Mice were habituated to the apparatus for 10 min during 3 consecutive days. On day 4, two identical novel objects (A+A or B+B) were placed at the end of each arm and animals performed a 10-min acquisition trial. A 10-min retention trial was carried out 2 hr after the acquisition trial with object A and B. Time exploring the novel (NO) and the familiar object (FO) was measured and a discrimination Index (DI) was defined as (NO-FO)/(NO+FO). In some experiments, a more restrictive threshold was applied and animals exploring less than 5 sec (NO+FO) were excluded from the analysis (Table S3).
Novel Object Recognition Test (NORT): Time exploring the novel (NO) and the familiar object (FO) was measured and a discrimination Index (DI) was defined as (NO-FO)/(NO+FO). In some experiments, a more restrictive threshold was applied and animals exploring less that 5 sec (NO+FO) were excluded from the analysis (Table S3). Open Field (OF): Locomotor activity was analyzed by video-tracking over the captured images using SMART® (v 2.5.21 (rat) or v3.0 (mice), PanLab, SLU, Spain).

brain MAO-B = biological target: T2, brain MAO-B (Mus musculus, UniProt Q8BW75); assay: MPTP neurotoxicity model; type: in vivo, C57BL/6 mice; conditions: i.p. 3 mg/kg
T2 construct: from tissue; host or cells: mouse brain (homogenate ex vivo; living animal in the MPTP and PEA tests)
T2 sequence (Q8BW75 whole entry): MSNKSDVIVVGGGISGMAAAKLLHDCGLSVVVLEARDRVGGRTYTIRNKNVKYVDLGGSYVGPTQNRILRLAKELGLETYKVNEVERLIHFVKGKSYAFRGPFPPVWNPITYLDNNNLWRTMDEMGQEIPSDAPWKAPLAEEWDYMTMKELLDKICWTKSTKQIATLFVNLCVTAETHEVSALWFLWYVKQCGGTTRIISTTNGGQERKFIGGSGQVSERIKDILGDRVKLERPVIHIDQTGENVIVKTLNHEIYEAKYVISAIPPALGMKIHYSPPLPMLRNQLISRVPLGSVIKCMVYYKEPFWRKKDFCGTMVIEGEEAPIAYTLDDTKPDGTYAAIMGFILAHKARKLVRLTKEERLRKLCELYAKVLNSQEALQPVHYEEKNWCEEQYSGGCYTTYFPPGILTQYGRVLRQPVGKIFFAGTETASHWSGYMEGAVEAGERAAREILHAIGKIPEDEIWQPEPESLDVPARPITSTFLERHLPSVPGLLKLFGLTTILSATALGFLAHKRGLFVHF

MAO-B [3] = conditions: 3 mg/kg/day; cited from earlier work

Sequence of MAO-B (Mus musculus, UniProt Q8BW75) (Q8BW75 whole entry): as above

Compound: Cc1nnc(NC(=O)c2cccc([C@@H]3C[C@H]3NC3CCC3)c2)s1 [T-448]
- learning function [1]: improved the learning function

Compound: N[C@@H]1C[C@H]1c1ccccc1 (racemic) [TCP, tranylcypromine]
- ED50 potentiation of PEA-induced symptoms (MAO-B [2]): 1.1 mg/kg
- ED50 potentiation of L-5-HTP-induced symptoms (MAO-A; p.o. gavage, followed by 100 mg/kg L-5-HTP i.p.): 1.4 mg/kg

Compound: C#CCN(C)[C@H](C)Cc1ccccc1 [SLG, selegiline]
- ED50 (MAO-A; mouse, read-out: ED50 potentiation of L-5-HTP-induced symptoms): 42.2 mg/kg

Compound: N[C@H]1CC[C@H](N[C@@H]2C[C@H]2c2ccccc2)CC1 [Iadademstat]
- cortical synaptic plasticity deficit and working memory (SETD1 +/- mice): reversed cortical synaptic plasticity deficit and the working memory

Compound: O=C(CCCCCCC(=O)Nc1ccccc1)NO [SAHA]
- deficient stress response and low anxiety phenotype (KDM1A-E8a KO mice): rescued

Compound: C#CCN[C@@H]1CCc2ccccc21 [RSG, rasagiline]
- NORT discrimination capacity (SAMP8 mice): tendency for improvement without reaching significance
- protection against the MPTP insult (brain MAO-B): full protection
- MAO-B inhibition at the dose used (MAO-B [3]): complete MAO-B inhibition
